Here are results for one substance from patent US7407645B2, “Bioconjugates of metal complexes of nitrogen-containing macrocyclic ligands” (Metaphore Pharmaceuticals, Inc., priority 1995, dated 2008).

A short description of this data set: Relaxivity R1 from proton relaxation times (T1), inversion-recovery, 20 MHz. Format: physicochemical. Also on record: unit not given here. The settings on record: 100 mM Hepes buffer, pH=7.4, 40° C., slope of 1/T1 versus concentration. As for the experimental part:
Relaxivity measurements of the complex of Example 1 was determined.
Proton relaxation times (T1) of the sample in 100 mM Hepes buffer, pH=7.4, at 40° C. were determined from a monoexponential curve fit obtained from inversion-recovery pulse sequences (180°-τ-90°) with a Bruker PC 120/125/10 VTs NMR process analyzer. The spectrometer was calibrated for each sample to assure accurate duration of 90° and 180° radio frequency pulses and appropriate magnetic field strength to match the 20 MHz system operating frequency. The relaxivity (R1) was obtained from the slope of a plot of 1/T1 versus the concentration of paramagnetic compound.

Turning to “[Manganese (II) dichloro 2,3-(R,R)-Cyclohexano-6-(S)-{3-(lithocholylamino)-propyl}-1,4,7,10,13-penta-azacclopentadecane] [Example 1]”, the “relaxivity R1” value was found to be 6.09.
